Laboratory results reported in US10202371B2, “Oxazolidin-2-one-pyrimidine derivatives and the use thereof as phosphatidylinositol-3-kinase inhibitors” (Novartis AG, priority 2012, dated 2019).
Read-outs that look alike come from different tables or passages of the source.

Key:
[1] = biological target: human PI3Kalpha p110 catalytic subunit (Rat-1 cells) (Homo sapiens (Human), UniProt P42336); assay: Cellular assay PI3Kalpha, p-Akt(S473) SureFire in Rat-1_PI3Kalpha cells; type: cell-based; details: p-AKT(Ser473), 1 h treatment
Excerpt: AlphaScreen (Amplified Luminescent Proximity Homogeneous Assay, ALPHA, Perkin Elmer) is a non-radioactive bead-based proximity assay technology to study biomolecular interactions in a homogenous microtiter plate format. The brand name SureFire denotes AlphaScreen assays that are adapted to quantify the phosphorylation of endogenous cellular proteins in cell lysates, by using matched antibody pairs, which consist of an anti-phospho-kinase and an anti-kinase antibody. The assay allows characterization of kinase signaling in cells as well as measurement of kinase inhibitor effects. The AlphaScreen technology provides several advantages over standard assay techniques such as ELISA, as it avoids time-consuming washing procedures and reduces plate handling. Furthermore, it is miniaturizable at least to a 384-well format and provides sensitivity down to the femtomolar range, dependent on the affinity of the antibodies included in the individual AlphaScreen SureFire assay kit. High sensitivity is reached by an intrinsic amplification mechanism, which involves production of singlet oxygen molecules. SureFire assay kits are commercially available for specific targets and include pairs of validated antibodies (PerkinElmer). […]

[2] = system: HaCaT keratinocyte cell line; assay: BrdU cell proliferation assay HaCaT keratinocytes; type: cell-based; details: Homo sapiens, BrdU incorporation
Experimental: Cells of SCC or keratinocyte lines (Detroit562, SCC12B2, SCL1, HaCaT) were used for the proliferation assays when they had reached about 80% to 90% confluency. Cells were then harvested after trypsin-mediated dislodgement from culture flasks, washed in culture medium containing 10% FCS, counted in a hemocytometer and diluted complete culture medium with 5% FCS to obtain a cell density of 5×10^4 cells/ml. 100 μl of this cell suspension (e.g. 5000 cells) were transferred into each well of a 96-well white walled tissue culture plate (Corning-Costar article #3917). Cells were then allowed to settle by placing them in the CO2 incubator for 45 to 60 minutes. Subsequently, a volume of 100 μl of culture medium containing twice the desired final concentration of the test compound was added to each well of quadruplicate wells. […] The cell proliferation was determined on the basis of incorporation of bromodesoxy-uridin (BrdU) into cellular DNA using the chemiluminescent BrdU Cell Proliferation ELISA (Roche article #11 669 915 001). […] Incorporation of BrdU into the DNA was detected by BrdU-specific antibodies and quantified on the basis of an antibody-coupled luciferase mediated signal generation. The luminescence emission was measured in a Victor light 1420 Luminescence counter, (Perkin Elmer) and expressed as relative luminescence units (e.g. data points given as RLU/s) per second. […]

human PI3Kalpha p110 catalytic subunit (Rat-1 cells), sequence (P42336 whole entry): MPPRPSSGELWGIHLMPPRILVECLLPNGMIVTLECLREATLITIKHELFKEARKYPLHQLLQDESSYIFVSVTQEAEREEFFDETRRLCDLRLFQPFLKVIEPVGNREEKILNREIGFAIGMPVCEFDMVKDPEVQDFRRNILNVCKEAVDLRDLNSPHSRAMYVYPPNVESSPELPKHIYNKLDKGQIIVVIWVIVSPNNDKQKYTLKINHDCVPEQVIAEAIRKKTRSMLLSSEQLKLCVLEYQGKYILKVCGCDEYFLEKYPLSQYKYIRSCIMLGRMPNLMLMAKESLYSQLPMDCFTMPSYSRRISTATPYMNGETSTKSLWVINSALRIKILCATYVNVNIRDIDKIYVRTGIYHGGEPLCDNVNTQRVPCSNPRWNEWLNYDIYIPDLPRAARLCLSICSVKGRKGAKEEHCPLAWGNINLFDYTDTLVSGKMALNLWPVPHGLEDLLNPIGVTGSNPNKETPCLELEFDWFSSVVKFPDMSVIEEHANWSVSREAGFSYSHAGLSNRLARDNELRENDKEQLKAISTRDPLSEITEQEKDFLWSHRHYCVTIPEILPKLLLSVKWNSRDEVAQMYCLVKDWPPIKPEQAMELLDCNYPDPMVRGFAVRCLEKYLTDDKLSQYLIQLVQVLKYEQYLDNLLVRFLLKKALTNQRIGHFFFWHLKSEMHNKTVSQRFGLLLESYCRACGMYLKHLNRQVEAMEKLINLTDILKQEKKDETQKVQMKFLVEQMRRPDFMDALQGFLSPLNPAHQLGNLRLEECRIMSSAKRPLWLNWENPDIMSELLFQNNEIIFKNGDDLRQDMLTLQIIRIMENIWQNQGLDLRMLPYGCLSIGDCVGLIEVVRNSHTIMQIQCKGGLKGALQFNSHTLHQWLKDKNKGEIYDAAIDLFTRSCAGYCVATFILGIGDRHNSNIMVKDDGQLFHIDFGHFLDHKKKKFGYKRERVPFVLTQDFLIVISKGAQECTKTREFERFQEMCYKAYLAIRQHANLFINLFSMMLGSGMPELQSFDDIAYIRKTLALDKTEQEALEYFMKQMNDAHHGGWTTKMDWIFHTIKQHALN
human PI3Kalpha p110 catalytic subunit (Rat-1 cells), sequence (Q63787 whole entry partner): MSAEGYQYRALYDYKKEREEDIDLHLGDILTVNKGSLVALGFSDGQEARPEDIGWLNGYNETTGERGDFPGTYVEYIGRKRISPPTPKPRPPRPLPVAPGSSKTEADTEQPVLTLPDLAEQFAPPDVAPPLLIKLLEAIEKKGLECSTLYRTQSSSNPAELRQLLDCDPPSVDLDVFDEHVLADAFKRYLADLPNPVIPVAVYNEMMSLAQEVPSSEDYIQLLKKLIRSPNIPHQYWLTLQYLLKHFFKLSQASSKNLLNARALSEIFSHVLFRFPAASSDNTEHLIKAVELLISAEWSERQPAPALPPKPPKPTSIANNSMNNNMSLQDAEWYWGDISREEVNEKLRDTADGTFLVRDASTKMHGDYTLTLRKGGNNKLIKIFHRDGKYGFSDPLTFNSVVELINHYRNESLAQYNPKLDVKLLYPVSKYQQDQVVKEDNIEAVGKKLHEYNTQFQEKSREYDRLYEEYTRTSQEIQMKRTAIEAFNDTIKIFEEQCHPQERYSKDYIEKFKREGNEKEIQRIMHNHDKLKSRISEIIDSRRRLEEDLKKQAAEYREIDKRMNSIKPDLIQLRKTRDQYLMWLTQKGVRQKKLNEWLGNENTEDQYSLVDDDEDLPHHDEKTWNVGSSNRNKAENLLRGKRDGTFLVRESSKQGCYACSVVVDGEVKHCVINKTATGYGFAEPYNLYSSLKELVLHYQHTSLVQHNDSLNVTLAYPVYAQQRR

| SMILES | Rat1-PI3Ka/IC50 [1] [umol I-1] | IC50 ([2]; measurement #1, read-out: anti-proliferative IC50 HaCaT measurement #1) [nM] | IC50 ([2]; measurement #2, read-out: anti-proliferative IC50 HaCaT measurement #2) [nM] |
| --- | --- | --- | --- |
| Nc1ncc(-c2cc(N3C(=O)O[C@@H](c4ccccc4)[C@@H]3CO)nc(N3CCOCC3)n2)c(C(F)(F)F)n1 [Example 10] | 0.085 | – | – |
| C[C@H]1[C@H](c2nccs2)OC(=O)N1c1cc(-c2cnc(N)nc2C(F)(F)F)nc(N2CCOCC2)n1 [Example 1, (4S,5R)-3-(2′-Amino-2-morpholin-4-yl-4′-trifluoromethyl-[4,5′]bipyrimidinyl-6-yl)-4-methyl-5-thiazol-2-yl-oxazolidin-2-one] | – | 282 | 298 |
